In ChEMBL document CHEMBL4219190, “Studies on synthesis of novel pyrido[2,3-d]pyrimidine derivatives, evaluation of their antimicrobial activity and molecular docking” (Bioorg Med Chem Lett, 2018):
≈ marks a conversion by molar mass, not a printed value. Calls of active or inactive are those of the source. The calls are words filed in the database; no cut-off is given here.

Experiments:
Nakaseomyces glabratus [1] = assay: Fungicidal activity against Candida glabrata MTCC 3019 incubated for 24 hrs followed by transfer of microbial suspension to Sabouraud dextrose agar plates and measured after 24 hrs post transfer; type: functional; conditions: MTCC 3019, 24 h
Nakaseomyces glabratus [2] = assay: Antifungal activity against Candida glabrata MTCC 3019 after 24 hrs by well diffusion method; type: functional; conditions: MTCC 3019, 24 h
Candida albicans [3] = assay: Fungicidal activity against Candida albicans MTCC 7315 incubated for 24 hrs followed by transfer of microbial suspension to Sabouraud dextrose agar plates and measured after 24 hrs post transfer; type: functional; conditions: MTCC 7315, 24 h
Candida albicans [4] = assay: Fungicidal activity against Candida albicans MTCC 183 incubated for 24 hrs followed by transfer of microbial suspension to Sabouraud dextrose agar plates and measured after 24 hrs post transfer; type: functional; conditions: MTCC 183, 24 h
Candida albicans [5] = assay: Fungicidal activity against Candida albicans MTCC 3958 incubated for 24 hrs followed by transfer of microbial suspension to Sabouraud dextrose agar plates and measured after 24 hrs post transfer; type: functional; conditions: MTCC 3958, 24 h
Pseudomonas aeruginosa [6] = assay: Antibiofilm activity against Pseudomonas aeruginosa MTCC 2453 after 24 hrs by crystal violet staining-based assay; type: functional, organism-based; conditions: Pseudomonas aeruginosa, MTCC 2453, 24 h; read-out: IC50
Pseudomonas aeruginosa [7] = assay: Bactericidal activity against Pseudomonas aeruginosa MTCC 2453 incubated for 24 hrs followed by transfer of microbial suspension to Mueller Hinton agar plates and measured after 24 hrs post transfer; type: functional; conditions: MTCC 2453, 24 h
Pichia sporocuriosa [8] = assay: Fungicidal activity against Issatchenkia hanoiensis MTCC 4755 incubated for 24 hrs followed by transfer of microbial suspension to Sabouraud dextrose agar plates and measured after 24 hrs post transfer; type: functional; conditions: MTCC 4755, 24 h
Candida albicans [9] = assay: Antifungal activity against Candida albicans MTCC 3018 after 24 hrs by well diffusion method; type: functional; conditions: MTCC 3018, 24 h
Micrococcus luteus [10] = assay: Bactericidal activity against Micrococcus luteus MTCC 2470 incubated for 24 hrs followed by transfer of microbial suspension to Mueller Hinton agar plates and measured after 24 hrs post transfer; type: functional; conditions: MTCC 2470, 24 h
Micrococcus luteus [11] = assay: Antibacterial activity against Micrococcus luteus MTCC 2470 after 24 hrs by well diffusion method; type: functional; conditions: MTCC 2470, 24 h
Candida albicans [12] = assay: Antifungal activity against Candida albicans MTCC 854 after 24 hrs by well diffusion method; type: functional; conditions: MTCC 854, 24 h
Candida albicans [13] = assay: Antifungal activity against Candida albicans MTCC 183 after 24 hrs by well diffusion method; type: functional; conditions: MTCC 183, 24 h
Escherichia coli [14] = assay: Antibacterial activity against Escherichia coli MTCC 739 after 24 hrs by well diffusion method; type: functional; conditions: MTCC 739, 24 h
Candida parapsilosis [15] = assay: Antifungal activity against Candida parapsilosis MTCC 1744 after 24 hrs by well diffusion method; type: functional; conditions: MTCC 1744, 24 h
[Candida] aaseri [16] = Antifungal activity against Candida aaseri MTCC 1962 after 24 hrs by well diffusion method; type: functional; conditions: Yamadazyma aaseri, MTCC 1962, 24 h
Candida albicans [17] = assay: Antifungal activity against Candida albicans MTCC 1637 after 24 hrs by well diffusion method; type: functional; conditions: MTCC 1637, 24 h
Raoultella planticola [18] = assay: Antibacterial activity against Klebsiella planticola MTCC 530 after 24 hrs by well diffusion method; type: functional; conditions: MTCC 530, 24 h
Candida albicans [19] = assay: Fungicidal activity against Candida albicans MTCC 854 incubated for 24 hrs followed by transfer of microbial suspension to Sabouraud dextrose agar plates and measured after 24 hrs post transfer; type: functional; conditions: MTCC 854, 24 h
Pichia kudriavzevii [20] = assay: Fungicidal activity against Candida krusei MTCC 3020 incubated for 24 hrs followed by transfer of microbial suspension to Sabouraud dextrose agar plates and measured after 24 hrs post transfer; type: functional
Staphylococcus aureus [21] = assay: Bactericidal activity against Staphylococcus aureus MTCC 96 incubated for 24 hrs followed by transfer of microbial suspension to Mueller Hinton agar plates and measured after 24 hrs post transfer; type: functional; conditions: MTCC 96, 24 h
Pichia kudriavzevii [22] = assay: Antifungal activity against Candida krusei MTCC 3020 after 24 hrs by well diffusion method; type: functional
Staphylococcus aureus [23] = assay: Antibacterial activity against Staphylococcus aureus MTCC 96 after 24 hrs by well diffusion method; type: functional; conditions: MTCC 96, 24 h
Staphylococcus aureus [24] = assay: Antibiofilm activity against Staphylococcus aureus MTCC 96 after 24 hrs by crystal violet staining-based assay; type: functional, organism-based; conditions: Staphylococcus aureus, MTCC 96, 24 h; read-out: IC50
Staphylococcus aureus [25] = assay: Bactericidal activity against Staphylococcus aureus MLS16 MTCC 2940 incubated for 24 hrs followed by transfer of microbial suspension to Mueller Hinton agar plates and measured after 24 hrs post transfer; type: functional; conditions: MLS16 MTCC 2940, 24 h
Raoultella planticola [26] = assay: Antibiofilm activity against Klebsiella planticola MTCC 530 after 24 hrs by crystal violet staining-based assay; type: functional, organism-based; conditions: Klebsiella planticola, MTCC 530, 24 h; read-out: IC50
Candida parapsilosis [27] = assay: Fungicidal activity against Candida parapsilosis MTCC 1744 incubated for 24 hrs followed by transfer of microbial suspension to Sabouraud dextrose agar plates and measured after 24 hrs post transfer; type: functional; conditions: Lodderomyces parapsilosis, MTCC 1744, 24 h
Candida albicans [28] = assay: Antifungal activity against Candida albicans MTCC 3017 after 24 hrs by well diffusion method; type: functional; conditions: MTCC 3017, 24 h
Escherichia coli [29] = assay: Bactericidal activity against Escherichia coli MTCC 739 incubated for 24 hrs followed by transfer of microbial suspension to Mueller Hinton agar plates and measured after 24 hrs post transfer; type: functional; conditions: MTCC 739, 24 h
Candida albicans [30] = assay: Fungicidal activity against Candida albicans MTCC 4748 incubated for 24 hrs followed by transfer of microbial suspension to Sabouraud dextrose agar plates and measured after 24 hrs post transfer; type: functional; conditions: MTCC 4748, 24 h
Candida albicans [31] = assay: Fungicidal activity against Candida albicans MTCC 1637 incubated for 24 hrs followed by transfer of microbial suspension to Sabouraud dextrose agar plates and measured after 24 hrs post transfer; type: functional; conditions: MTCC 1637, 24 h
Bacillus subtilis [32] = assay: Bactericidal activity against Bacillus subtilis MTCC 121 incubated for 24 hrs followed by transfer of microbial suspension to Mueller Hinton agar plates and measured after 24 hrs post transfer; type: functional; conditions: MTCC 121, 24 h
Candida albicans [33] = assay: Antifungal activity against Candida albicans MTCC 7315 after 24 hrs by well diffusion method; type: functional; conditions: MTCC 7315, 24 h
[Candida] aaseri [34] = Fungicidal activity against Candida aaseri MTCC 1962 incubated for 24 hrs followed by transfer of microbial suspension to Sabouraud dextrose agar plates and measured after 24 hrs post transfer; type: functional; conditions: Yamadazyma aaseri, MTCC 1962, 24 h
Bacillus subtilis [35] = assay: Antibacterial activity against Bacillus subtilis MTCC 121 after 24 hrs by well diffusion method; type: functional; conditions: MTCC 121, 24 h
Staphylococcus aureus [36] = assay: Antibacterial activity against Staphylococcus aureus MLS16 MTCC 2940 after 24 hrs by well diffusion method; type: functional; conditions: MLS16 MTCC 2940, 24 h
Bacillus subtilis [37] = assay: Antibiofilm activity against Bacillus subtilis MTCC 121 after 24 hrs by crystal violet staining-based assay; type: functional, organism-based; conditions: Bacillus subtilis, MTCC 121, 24 h; read-out: IC50
Candida albicans [38] = assay: Fungicidal activity against Candida albicans MTCC 3017 incubated for 24 hrs followed by transfer of microbial suspension to Sabouraud dextrose agar plates and measured after 24 hrs post transfer; type: functional; conditions: MTCC 3017, 24 h
Candida albicans [39] = assay: Fungicidal activity against Candida albicans MTCC 227 incubated for 24 hrs followed by transfer of microbial suspension to Sabouraud dextrose agar plates and measured after 24 hrs post transfer; type: functional; conditions: MTCC 227, 24 h
Candida albicans [40] = assay: Fungicidal activity against Candida albicans MTCC 3018 incubated for 24 hrs followed by transfer of microbial suspension to Sabouraud dextrose agar plates and measured after 24 hrs post transfer; type: functional; conditions: MTCC 3018, 24 h
Raoultella planticola [41] = assay: Bactericidal activity against Klebsiella planticola MTCC 530 incubated for 24 hrs followed by transfer of microbial suspension to Mueller Hinton agar plates and measured after 24 hrs post transfer; type: functional; conditions: MTCC 530, 24 h
Candida albicans [42] = assay: Antifungal activity against Candida albicans MTCC 4748 after 24 hrs by well diffusion method; type: functional; conditions: MTCC 4748, 24 h
Staphylococcus aureus [43] = assay: Antibiofilm activity against Staphylococcus aureus MLS16 MTCC 2940 after 24 hrs by crystal violet staining-based assay; type: functional, organism-based; conditions: Staphylococcus aureus, MLS16 MTCC 2940, 24 h; read-out: IC50
Pichia sporocuriosa [44] = assay: Antifungal activity against Issatchenkia hanoiensis MTCC 4755 after 24 hrs by well diffusion method; type: functional; conditions: MTCC 4755, 24 h
Candida albicans [45] = assay: Antifungal activity against Candida albicans MTCC 227 after 24 hrs by well diffusion method; type: functional; conditions: MTCC 227, 24 h
Candida albicans [46] = assay: Antifungal activity against Candida albicans MTCC 3958 after 24 hrs by well diffusion method; type: functional; conditions: MTCC 3958, 24 h
Pseudomonas aeruginosa [47] = assay: Antibacterial activity against Pseudomonas aeruginosa MTCC 2453 after 24 hrs by well diffusion method; type: functional; conditions: MTCC 2453, 24 h

COc1ccc(-c2nc(C(=O)N3CCN(C)CC3)nc3nc(-c4ccccc4)cc(C(F)(F)F)c23)cc1
MFC (Nakaseomyces glabratus [1]): 15.6 µg/mL (≈ 30.7 µM) | MIC (Nakaseomyces glabratus [2]): 7.8 µg/mL (≈ 15.4 µM) | MFC (Candida albicans [3]): 62.5 µg/mL (≈ 123 µM) | MFC (Candida albicans [4]): 7.8 µg/mL (≈ 15.4 µM) | MFC (Candida albicans [5]): 62.5 µg/mL (≈ 123 µM) | IC50 (Pseudomonas aeruginosa [6]): 2.7 µg/mL (≈ 5.32 µM) | MBC (Pseudomonas aeruginosa [7]): 15.6 µg/mL (≈ 30.7 µM) | MFC (Pichia sporocuriosa [8]): 15.6 µg/mL (≈ 30.7 µM) | MIC (Candida albicans [9]): 31.2 µg/mL (≈ 61.5 µM) | MBC (Micrococcus luteus [10]): 31.2 µg/mL (≈ 61.5 µM) | MIC (Micrococcus luteus [11]): 15.6 µg/mL (≈ 30.7 µM) | MIC (Candida albicans [12]): 15.6 µg/mL (≈ 30.7 µM) | MIC (Candida albicans [13]): 3.9 µg/mL (≈ 7.68 µM) | MIC (Escherichia coli [14]): 15.6 µg/mL (≈ 30.7 µM) | MIC (Candida parapsilosis [15]): 15.6 µg/mL (≈ 30.7 µM) | MIC ([Candida] aaseri [16]): 15.6 µg/mL (≈ 30.7 µM) | MIC (Candida albicans [17]): 15.6 µg/mL (≈ 30.7 µM) | MIC (Raoultella planticola [18]): 15.6 µg/mL (≈ 30.7 µM) | MFC (Candida albicans [19]): 31.2 µg/mL (≈ 61.5 µM) | MFC (Pichia kudriavzevii [20]): inactive | MBC (Staphylococcus aureus [21]): 15.6 µg/mL (≈ 30.7 µM) | MIC (Pichia kudriavzevii [22]): inactive | MIC (Staphylococcus aureus [23]): 7.8 µg/mL (≈ 15.4 µM) | IC50 (Staphylococcus aureus [24]): 5.4 µg/mL (≈ 10.6 µM) | MBC (Staphylococcus aureus [25]): 15.6 µg/mL (≈ 30.7 µM) | IC50 (Raoultella planticola [26]): 10.8 µg/mL (≈ 21.3 µM) | MFC (Candida parapsilosis [27]): 31.2 µg/mL (≈ 61.5 µM) | MIC (Candida albicans [28]): 3.9 µg/mL (≈ 7.68 µM) | MBC (Escherichia coli [29]): 31.2 µg/mL (≈ 61.5 µM) | MFC (Candida albicans [30]): 62.5 µg/mL (≈ 123 µM) | MFC (Candida albicans [31]): 31.2 µg/mL (≈ 61.5 µM) | MBC (Bacillus subtilis [32]): 15.6 µg/mL (≈ 30.7 µM) | MIC (Candida albicans [33]): 31.2 µg/mL (≈ 61.5 µM) | MFC ([Candida] aaseri [34]): 31.2 µg/mL (≈ 61.5 µM) | MIC (Bacillus subtilis [35]): 7.8 µg/mL (≈ 15.4 µM) | MIC (Staphylococcus aureus [36]): 15.6 µg/mL (≈ 30.7 µM) | IC50 (Bacillus subtilis [37]): 2.7 µg/mL (≈ 5.32 µM) | MFC (Candida albicans [38]): 7.8 µg/mL (≈ 15.4 µM) | MFC (Candida albicans [39]): 31.2 µg/mL (≈ 61.5 µM) | MFC (Candida albicans [40]): 62.5 µg/mL (≈ 123 µM) | MBC (Raoultella planticola [41]): 31.2 µg/mL (≈ 61.5 µM) | MIC (Candida albicans [42]): 62.5 µg/mL (≈ 123 µM) | IC50 (Staphylococcus aureus [43]): 10.8 µg/mL (≈ 21.3 µM) | MIC (Pichia sporocuriosa [44]): 7.8 µg/mL (≈ 15.4 µM) | MIC (Candida albicans [45]): 31.2 µg/mL (≈ 61.5 µM) | MIC (Candida albicans [46]): 62.5 µg/mL (≈ 123 µM) | MIC (Pseudomonas aeruginosa [47]): 7.8 µg/mL (≈ 15.4 µM)
